# Assay results published in US20200261497A1, “Iodinated Contract Medium for Use as a Medicament for Thyroid Radioprotection” (priority 2017, published 2020).
# How the values were obtained:
# HT29-NIS cells = assay: 125I iodide uptake in HT29-NIS cells; format: cell-based, human; conditions: one hour incubation with 125I, Iomeron 100 μL corresponding to 70 mg of iomeprol
# Procedure: (§1) FIG. 2: Effect of Iomeron on iodide uptake of established cell lines expressing NIS. HT29-NIS (A) or PCCL3 (B) cells were incubated for one hour with ^125I in the presence of an equal volume of either saline, Iomeron (100 μL corresponding to 70 mg of iomeprol), NaI or perchlorate. Cells were then rapidly washed with saline buffer and lysed. Aliquots of lysates were counted in a y counter. The results are expressed as percentage of uptake in the control condition. The data presented are the mean±SEM of triplicates and are representative of three independent experiments. n.s: non statistically significant.
# (§2) The human colorectal cancer cell line HT-29 (HTB-38, ATCC) was transfected with pcDNA3.1-mNIS (murine NIS) (Perron et al., 2001) using the FuGENE 6 reagent (Roche) according to the manufacturer's instructions. Stable clones were selected by addition of 1 mg/mL geneticin (G418) to the medium 3 days after transfection. One clone with high functional expression of NIS was selected (Richard-Fiardo et al., 2012). The rat follicular thyroid cell line PCCL3 was obtained from Dr. A. De La Vieja (Madrid, Spain) and cultured as previously described (Leoni et al., 2011). Measurement of in vitro iodide uptake was performed as previously described (Groot-Wassink et al., 2002).
# (§3) We next examined whether iomeprol and its contaminating free iodide could affect iodide uptake in NIS-expressing cell lines. HT29-NIS (a human colorectal carcinoma cell line expressing NIS) (FIG. 2A) or PCCL3 (a rat follicular thyroid cell line) (FIG. 2B) cells were incubated with ^125I in the presence of either saline buffer, Iomeron, NaI, or perchlorate (NaClO4). After one hour, cells were washed and cellular ^125I content was determined.
# PCCL3 cells = assay: 125I iodide uptake in PCCL3 cells; format: cell-based, rat; conditions: one hour incubation with 125I, Iomeron 100 μL corresponding to 70 mg of iomeprol
# Procedure: as §1, §2, §3
# mouse thyroid = assay: 99m-pertechnetate uptake by the mouse thyroid (microSPECT/CT); format: in vivo
# Procedure: (§4) FIG. 3: Effect of Iomeron on the uptake of ^99m-pertechnetate by the mouse thyroid and salivary glands. SPECT/CT imaging of mice administered 20 MBq ^99m-pertechnetate was performed (day 0). At the end of the scan, Iomeron was administered intravenously. One, four, eight, twelve and eighteen days later, animals were injected with 20 MBq ^99m-pertechnetate and new scans were performed. The data presented represent the percentage of radiotracer injected taken up by the thyroid (A) and salivary glands (B). (n=3 per condition). ***p<0.001; n.s: non statistically significant.
# FIG. 5: Effect of KI on the uptake of ^99m-pertechnetate by the mouse thyroid and salivary glands. SPECT/CT imaging of mice administered 20 MBq ^99m-pertechnetate was performed (day 0). Animals were injected intraperitoneally with KI (9 mg in 180 μL) and scanned 30 minutes later. Twenty-four hours later, animals were injected with 20 MBq ^99m-pertechnetate and new scans were performed. The data presented represent the percentage of radiotracer injected taken up by the thyroid (A) and salivary glands (B). (n=3 per condition). *p<0.05; ***p<0.001.
# FIG. 7: Evaluation of the effect of different modes of administration of Iomeron on the uptake of ^99m-pertechnetate by the thyroid. SPECT/CT imaging of mice administered 20 MBq ^99m-pertechnetate was performed (day 0). At the end of the scan, intravenous, sublingual, enteral, and intraperitoneal administrations of Iomeron were performed. Four days later, animals were injected with 20 MBq ^99m-pertechnetate and new scans were performed. The data presented represent the percentage of radiotracer injected taken up by the thyroid (A) and salivary glands (B). (n=2 per condition). ***p<0.001.
# FIG. 9: Effect of Telebrix, Optiray and Omnipaque on the uptake of ^99mpertechnetate by the mouse thyroid. SPECT/CT imaging of mice administered 20 MBq ^99mpertechnetate was performed (day 0). At the end of the scan, mice received a sublingual administration […] of Telebrix or Optiray, or Omnipaque. Two days later, animals were injected with 20 MBq ^99mpertechnetate and new scans were performed. The data presented represent the percentage of radiotracer injected taken up by the thyroid. (n=3 per condition). ***p<0.001; n.s: non statistically significant. % IA: percentage of the injected activity.
# Eight-week-old female C57B/6J mice were obtained from Janvier (Le Genest Saint Isle, France). Animal housing and procedures were conducted according to French Agriculture Ministry guidelines and were approved by the local ethics committee (Ciepal NCE/2014-211).
# Intravenous and intraperitoneal administration was performed by injecting 100 μL Iomeron diluted 50/50 (vol/vol) with phosphate-buffered saline (corresponding to 18 mg iomeprol). Enteral administration was performed by gavage of 100 μL Iomeron diluted 50/50 (vol/vol) with phosphate-buffered saline (corresponding to 18 mg iomeprol). Sublingual administration was performed on anesthetized mice by five sublingual depositions of 5 μL Iomeron, with a delay of 10 minutes between two administrations. This procedure led to the administration of […] iomeprol.
# ^99mTc pertechnetate (^99mTcO4^−) was obtained from a freshly eluted ^99Mo/^99mTc generator. Animals were administered intraperitoneally with activities of 20 MBq ^99mTcO4^−. Thyroid and salivary gland tracer uptake was measured at different times using a dedicated microSPECT/CT scanner (eXplore speCZT CT120, GE) under gas anesthesia (air and 1-2% isoflurane) in an air-warmed imaging chamber (Minerve, Esternay, France) to maintain body temperature at 37° C. The SPECT scanner uses a stationary full ring of CZT detectors and a rotating 7-pinhole (1 mm opening) collimator. A total of 350 projections were acquired over 360° in 8 minutes. Images were reconstructed using the manufacturer's 3D-OSEM algorithm (5 subsets and 11 iterations), which incorporates the system's collimator-detector response function and scatter correction. […]
# mouse salivary glands = assay: 99m-pertechnetate uptake by the mouse salivary glands (microSPECT/CT); format: in vivo
# Procedure: as §4
# FIG. 5: Effect of KI on the uptake of ^99m-pertechnetate by the mouse thyroid and salivary glands. […]
# ^99mTc pertechnetate (^99mTcO4^−) was obtained from a freshly eluted ^99Mo/^99mTc generator. […] Thyroid and salivary gland tracer uptake was measured at different times using a dedicated microSPECT/CT scanner (eXplore speCZT CT120, GE) under gas anesthesia (air and 1-2% isoflurane) in an air-warmed imaging chamber (Minerve, Esternay, France) to maintain body temperature at 37° C. […] Reconstructed images were analyzed and quantified using AMIDE software (Loening and Gambhir, 2003). Tracer activities in the various relevant organs were calculated. […] Uptakes were expressed as percentages of the injected dose (% ID) after decay correction (Cambien et al., 2014).
# human thyroid = assay: 99mTcO4- scintigraphy of the human thyroid; format: in vivo; conditions: patient, intravenous injection two weeks before scintigraphy
# Procedure: (§5) FIG. 4: Effect of Iomeron on the uptake of ^99m-pertechnetate by the human thyroid and salivary glands. Scintigraphies of a naïve patient (A) or a patient who has been administered with Iomeron two weeks before the scintigraphy. SG: salivary glands; T: thyroid; R: right; L: left.
# (§6) A “naïve” patient and a patient who had received an intravenous injection of Iomeron 350 two weeks before scintigraphy were involved. On the day of the scintigraphy, patients were injected intravenously with an activity of 1 MBq/kg and 600 s scans was performed 15 min later.
# human salivary glands = assay: 99mTcO4- scintigraphy of the human salivary glands; format: in vivo; conditions: patient, intravenous injection two weeks before scintigraphy
# Procedure: as §5, §6
# NIS [1] = assay: NIS expression in mouse thyroid glands (immunohistochemistry, Western blot); format: in vivo; conditions: four days after intravenous injection
# Procedure: (§7) FIG. 6: Analysis of NIS expression in the thyroid and salivary glands in response to Iomeron. Saline buffer (A, C) or Iomeron (B, D) were administered intravenously. Four days later, animals were culled and NIS expression in the thyroid glands (A, B) and salivary glands (C, D) were analyzed by immunohistochemistry (n=3 per group). Thyroids and salivary glands were also processed for Western blot analysis of NIS and β-actin expression (n=2 per group).
# (§8) Thyroid membrane proteins were subjected to SDS-PAGE electrophoresis as previously described (Cambien et al., 2014). Western blotting was performed with antibody 25 anti-mouse NIS, an affinity-purified rabbit immunoreactive serum fraction, or with an anti-β-actin antibody (Sigma).
# (§9) After culling the animals, thyroids and salivary glands were dissected, paraffin embedded, and cut into 4-μm-thick sections. The paraffin was then removed and the sections were rehydrated and subjected to an antigen retrieval treatment with a solution of citrate buffer, pH 6, using an automate (PT Link, Dako). Immunostaining was performed following a standard protocol (Dako EnVision™ FLEX using an automated immunostainer, Autostainer, Dako). Endogenous peroxide was blocked using the EnVision™ FLEX Peroxidase-Blocking Reagent. […]
# NIS [2] = assay: NIS expression in mouse salivary glands (immunohistochemistry, Western blot); format: in vivo; conditions: four days after intravenous injection
# Procedure: as §7, §8, §9
# thyroid = conditions: KI tablets, prevention of 131-I entry into the thyroid; cited from earlier work
# [3] = after intravenous administration, scans on days 1, 4, 8, 12, 18
smiles,measurement,setting,value
"CN(C(=O)CO)c1c(I)c(C(=O)NCC(O)CO)c(I)c(C(=O)NCC(O)CO)c1I (stereo not drawn) [Iomeron, iomeprol]",iodide uptake (125I),HT29-NIS cells,failed to affect this uptake significantly
same,iodide uptake (125I),PCCL3 cells,failed to affect this uptake significantly
same,radiotracer uptake by the thyroid,mouse thyroid; 24 hours after intravenous administration,dramatic reduction
same,duration of low thyroid uptake capacity,mouse thyroid; [3],remained low for eight days
same,recovery of thyroid uptake capacity,mouse thyroid; [3],recovery was observed from day 12
same,radiotracer uptake by the thyroid,"mouse thyroid; enteral administration (gavage, 18 mg iomeprol), four days later",neither enteral nor intraperitoneal administration affected radiotracer uptake
same,radiotracer uptake by the thyroid,"mouse thyroid; intraperitoneal administration (18 mg iomeprol), four days later",neither enteral nor intraperitoneal administration affected radiotracer uptake
same,radiotracer uptake by the thyroid,"mouse thyroid; intravenous administration (18 mg iomeprol), four days later",marked reduction
same,radiotracer uptake by the thyroid,"mouse thyroid; sublingual administration (9 mg iomeprol), four days later",marked reduction
same,uptake by the salivary glands,"mouse salivary glands; after intravenous administration, same animals",failed to affect iodide uptake
same,uptake to the salivary glands,"mouse salivary glands; intravenous, sublingual, enteral or intraperitoneal administration, four days later",not affected in any condition
same,pertechnetate uptake in the thyroid,human thyroid,lack of fixation in the thyroid region
same,pertechnetate uptake in the salivary glands,human salivary glands,radiotracer uptake in the salivary glands
same,"NIS expression in thyroids, immunohistological analysis",NIS [1],hardly detectable
same,"NIS expression in the thyroid glands, western blot",NIS [1]; compared with controls,dramatic decrease
same,"NIS expression in ductal cells of the salivary glands, immunohistological analysis",NIS [2],detectable
same,"NIS expression in the salivary glands, western blot",NIS [2]; compared with controls,no significant difference
"[I-].[K+] [KI, potassium iodide]",ability of the thyroid to take up pertechnetate,mouse thyroid; 30 minutes after intraperitoneal injection (9 mg in 180 μL),reduced
same,ability of the thyroid to take up pertechnetate,mouse thyroid; 24 hours after intraperitoneal injection (9 mg in 180 μL),recovered
same,duration of the protective effect,thyroid,24 h
[I-].[Na+] [NaI],iodide uptake (125I),HT29-NIS cells,inhibited iodide uptake
same,iodide uptake (125I),PCCL3 cells,inhibited iodide uptake
[O-][Cl+3]([O-])([O-])O [perchlorate],iodide uptake (125I),HT29-NIS cells,inhibited iodide uptake
same,iodide uptake (125I),PCCL3 cells,inhibited iodide uptake
